The target in test [1] is T1, NTMT1 (Homo sapiens, UniProt Q9BV86).
T1 sequence (Q9BV86 1-223): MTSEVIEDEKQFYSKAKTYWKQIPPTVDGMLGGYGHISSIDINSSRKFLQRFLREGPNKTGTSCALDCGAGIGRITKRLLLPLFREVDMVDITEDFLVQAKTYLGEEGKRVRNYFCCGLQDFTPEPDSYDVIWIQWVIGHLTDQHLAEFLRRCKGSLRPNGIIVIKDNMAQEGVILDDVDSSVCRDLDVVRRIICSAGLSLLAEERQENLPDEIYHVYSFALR
The experiment in a line: SAHH-coupled fluorescence assay. The conditions noted are these: for fold decrease in IC50 activity compared to 3: 10 min preincubation; for fold activity decrease compared to respective NAH-GPKRIA compound: 5 vs 1, 6 vs 2. It is filed as biochemical.

Test [2] addresses T1, NTMT1.
Test [3] deals with other methyltransferases. The conditions noted are these: cited from earlier work.
In test [4] the test system is NTMT1. The following applies: MALDI-MS based assay; cited from earlier work.
Test [5] deals with NTMT1. The conditions noted are these: cited from earlier work.
Test [6] concerns the target euchromatic histone-lysine N-methyltransferase 2 (G9a) (Homo sapiens, UniProt Q96KQ7). The following applies: at 100 μM.
Test [7] deals with T1, NTMT1. The experiment in a line: MALDI-MS methylation inhibition assay. It is filed as biochemical. The conditions noted are these: 10 min preincubation, 20 min.
Test [8] has as its target SET domain-containing protein 7 (SETD7) (Homo sapiens, UniProt Q8WTS6). The following applies: at 100 μM.
Test [9] concerns the target nicotinamide N-methyltransferase (NNMT) (Homo sapiens, UniProt P40261). The following applies: at 100 μM.
Test [10] deals with Trypanosoma brucei protein arginine methyltransferase 7 (TbPRMT7) (Trypanosoma brucei brucei, UniProt Q582G4). Put plainly: biochemical.
Trypanosoma brucei protein arginine methyltransferase 7 (TbPRMT7), sequence (Q582G4 whole entry): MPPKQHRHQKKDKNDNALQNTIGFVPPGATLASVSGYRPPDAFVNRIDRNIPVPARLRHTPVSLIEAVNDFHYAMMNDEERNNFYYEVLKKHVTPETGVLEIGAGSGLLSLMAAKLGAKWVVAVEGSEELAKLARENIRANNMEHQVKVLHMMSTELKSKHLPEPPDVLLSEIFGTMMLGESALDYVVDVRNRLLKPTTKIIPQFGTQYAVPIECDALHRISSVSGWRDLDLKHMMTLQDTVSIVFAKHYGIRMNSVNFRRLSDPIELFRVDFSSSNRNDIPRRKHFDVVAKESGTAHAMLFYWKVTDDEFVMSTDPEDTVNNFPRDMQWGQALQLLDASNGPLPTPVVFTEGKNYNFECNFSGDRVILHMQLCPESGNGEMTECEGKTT

We go through 8 compounds from publication PMC7429357 (Journal of medicinal chemistry, 2020).

Like-named read-outs stand apart in the source and are kept apart here.

nicotinamide N-methyltransferase (NNMT), sequence (P40261 whole entry, species assumed): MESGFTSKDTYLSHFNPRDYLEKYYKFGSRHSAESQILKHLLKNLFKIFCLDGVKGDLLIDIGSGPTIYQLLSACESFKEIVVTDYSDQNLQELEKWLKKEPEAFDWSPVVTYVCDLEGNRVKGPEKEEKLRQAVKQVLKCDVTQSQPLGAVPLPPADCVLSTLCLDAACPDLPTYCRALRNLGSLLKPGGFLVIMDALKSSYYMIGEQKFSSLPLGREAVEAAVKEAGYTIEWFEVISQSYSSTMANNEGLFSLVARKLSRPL
SET domain-containing protein 7 (SETD7), sequence (Q8WTS6 whole entry, species assumed, the tested form may be a part): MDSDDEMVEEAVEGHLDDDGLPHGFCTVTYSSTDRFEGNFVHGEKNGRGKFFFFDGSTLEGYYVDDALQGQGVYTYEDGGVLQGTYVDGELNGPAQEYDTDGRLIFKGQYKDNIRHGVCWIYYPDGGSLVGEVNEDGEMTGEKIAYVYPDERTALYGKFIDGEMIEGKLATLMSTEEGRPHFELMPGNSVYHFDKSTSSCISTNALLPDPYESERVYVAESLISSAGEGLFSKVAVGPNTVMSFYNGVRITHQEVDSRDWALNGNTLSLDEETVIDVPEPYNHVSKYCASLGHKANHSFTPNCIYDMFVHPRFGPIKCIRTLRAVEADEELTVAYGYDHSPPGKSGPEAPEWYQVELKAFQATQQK
euchromatic histone-lysine N-methyltransferase 2 (G9a), sequence (Q96KQ7 whole entry, species assumed): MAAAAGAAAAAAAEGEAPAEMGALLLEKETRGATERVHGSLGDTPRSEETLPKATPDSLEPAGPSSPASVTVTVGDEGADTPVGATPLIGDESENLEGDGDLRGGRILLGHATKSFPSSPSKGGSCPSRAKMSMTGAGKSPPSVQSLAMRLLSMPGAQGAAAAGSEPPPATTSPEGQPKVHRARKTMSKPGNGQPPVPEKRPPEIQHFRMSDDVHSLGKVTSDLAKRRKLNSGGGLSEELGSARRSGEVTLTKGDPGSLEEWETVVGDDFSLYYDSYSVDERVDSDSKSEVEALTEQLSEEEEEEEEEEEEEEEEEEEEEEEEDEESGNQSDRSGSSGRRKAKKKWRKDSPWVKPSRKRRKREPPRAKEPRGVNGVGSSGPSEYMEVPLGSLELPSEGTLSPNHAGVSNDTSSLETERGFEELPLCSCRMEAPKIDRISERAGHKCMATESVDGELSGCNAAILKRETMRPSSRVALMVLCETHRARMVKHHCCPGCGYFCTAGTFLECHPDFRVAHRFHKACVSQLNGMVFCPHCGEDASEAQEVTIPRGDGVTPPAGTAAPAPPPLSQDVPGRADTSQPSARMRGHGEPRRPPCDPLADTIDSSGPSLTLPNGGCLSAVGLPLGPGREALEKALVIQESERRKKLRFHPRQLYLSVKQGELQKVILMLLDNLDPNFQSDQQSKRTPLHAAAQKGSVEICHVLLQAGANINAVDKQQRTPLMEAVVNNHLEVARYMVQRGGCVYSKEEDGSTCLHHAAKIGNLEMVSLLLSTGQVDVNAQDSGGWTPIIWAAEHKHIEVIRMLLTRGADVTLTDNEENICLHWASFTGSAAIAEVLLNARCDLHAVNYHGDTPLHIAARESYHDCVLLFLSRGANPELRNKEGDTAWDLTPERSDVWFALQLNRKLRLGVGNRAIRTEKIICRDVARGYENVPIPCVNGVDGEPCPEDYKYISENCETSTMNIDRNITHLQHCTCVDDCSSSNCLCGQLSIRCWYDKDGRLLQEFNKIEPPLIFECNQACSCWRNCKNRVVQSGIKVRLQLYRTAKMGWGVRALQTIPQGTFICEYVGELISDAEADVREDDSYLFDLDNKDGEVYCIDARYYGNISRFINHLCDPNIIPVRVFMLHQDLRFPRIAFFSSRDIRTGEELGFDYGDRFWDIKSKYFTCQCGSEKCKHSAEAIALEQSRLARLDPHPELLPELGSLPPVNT

For the compound `CC[C@H](C)[C@H](NC(=O)[C@H](CCCNC(=N)N)NC(=O)[C@H](CCCCN)NC(=O)[C@@H]1CCCN1C(=O)CNCCN(CC[C@H](N)C(=O)O)C[C@H]1O[C@@H](n2cnc3c(N)ncnc32)[C@H](O)[C@@H]1O)C(=O)N[C@@H](C)C(N)=O` [Compound 1, NAH-C2-GPKRIA], the “fold decrease in IC50 activity compared to 3” value in [1] is reported as 3 fold. Moreover, the “fold decrease in Ki, app in comparison with 3” value in test [2] was found to be 40 fold.
What is called IC50 is the point on the concentration scale where inhibition reaches its midpoint. With NAH-C3-PPKRIA, the “selectivity against other methyltransferases” value in [3] is listed as “more than 100 fold”. For the same compound, the IC50 in [4] was 35 ± 2 nM.
Regarding `CC[C@H](C)[C@H](NC(=O)[C@H](CCCNC(=N)N)NC(=O)[C@H](CCCCN)NC(=O)[C@@H]1CCCN1C(=O)CNCCCN(CC[C@H](N)C(=O)O)C[C@H]1O[C@@H](n2cnc3c(N)ncnc32)[C@H](O)[C@@H]1O)C(=O)N[C@@H](C)C(N)=O` [Compound 2, NAH-C3-GPKRIA], the “fold decrease in IC50 activity compared to 3” value in [1] is listed as 1.5 fold.
For `N=C(N)NCCC[C@H](NC(=O)[C@H](CCCCN)NC(=O)[C@@H]1CCCN1C(=O)CNCCN(CC[C@H](N)C(=O)O)C[C@H]1O[C@@H](n2cnc3c(N)ncnc32)[C@H](O)[C@@H]1O)C(N)=O` [Compound 5, NAH-C2-GPKR], the “fold activity decrease compared to respective NAH-GPKRIA compound” value in [1] is below 2 fold.
NAH-C3-GPRRRS: the IC50 in test [5] was 940 ± 160 nM.
As usually defined, the inhibition is the percentage by which the read-out fell short of the control. Read a low inhibition as a weak effect. On to `CC[C@H](C)[C@H](NC(=O)[C@H](CCCNC(=N)N)NC(=O)[C@H](CCCCN)NC(=O)[C@@H]1CCCN1C(=O)CNCCCCN(CC[C@H](N)C(=O)O)C[C@H]1O[C@@H](n2cnc3c(N)ncnc32)[C@H](O)[C@@H]1O)C(=O)N[C@@H](C)C(N)=O` [Compound 3, NAH-C4-GPKRIA], for which the inhibitory activity entry in test [6], in test [8] and in [9] was “barely showed inhibitory activity” throughout. Further, the “tri-methylation of GPKRIA peptide” value in [7] (50 nM compound) is given as “substantially reduced”; in test [7] (200 nM compound), “barely detected”. In test [10], this compound displayed an inhibition at 33 µM below 50%.
Turning to `N=C(N)NCCC[C@H](NC(=O)[C@H](CCCCN)NC(=O)[C@@H]1CCCN1C(=O)CNCCCCN(CC[C@H](N)C(=O)O)C[C@H]1O[C@@H](n2cnc3c(N)ncnc32)[C@H](O)[C@@H]1O)C(N)=O` [Compound 7, NAH-C4-GPKR], in test [1], the “fold better activity than 5” value turned out to be 4 fold and the “fold better activity than 6” value is 2 fold.
`N=C(N)NCCC[C@H](NC(=O)[C@H](CCCCN)NC(=O)[C@@H]1CCCN1C(=O)CNCCCN(CC[C@H](N)C(=O)O)C[C@H]1O[C@@H](n2cnc3c(N)ncnc32)[C@H](O)[C@@H]1O)C(N)=O` [Compound 6, NAH-C3-GPKR]: the “fold activity decrease compared to respective NAH-GPKRIA compound” value in test [1] is given as below 2 fold.
